Data on twelve compounds can be found in patent US20100298377A1, “NOVEL SUBSTITUTED INDAZOLES, THE PREPARATION THEREOF AND USE OF SAME IN THERAPEUTICS” (SANOFI-AVENTIS, priority 2007, published 2010).

The test system of data set [1] is MCF7 cells (human breast carcinoma cells). As to the kind of experiment: Proliferation of MCF7 cells, intracellular ATP, CellTiter-Glo test. Type of data set: cell-based. The following applies: Homo sapiens, MCF7, 96 hours. An excerpt:
(§1) b. Study of the Proliferation of Human Tumoral MIA PaCa-2, C-433, LnCaP and MCF7 Cells via Assay of the Intracellular ATP Using the Celltiter-Glo™ Test
(§2) The kit CellTiter-Glo™ for measuring cell viability via luminescence ([…]) is a homogeneous method for determining the number of viable cells in culture, based on quantification of the ATP present in the cells, and which indicates the presence of metabolically active cells.
(§3) The cell lines used in this test were the following: MIA PaCa-2 cells (human pancreatic carcinoma cells, ATCC, CRL-1420), C-433 cells (human Ewing sarcoma cells, DSMZ, ACC 268), LNCaP clone FGC cells (human prostate carcinoma cells, ATCC, CRL-1740), MCF7 cells (human breast carcinoma cells, ECACC, #86012803). The cells MIAPaCa-2 and LNCaP were cultured in D-MEM culture medium (Invitrogen Gibco, #419656-039) containing 10% foetal calf serum (FCS, Invitrogen Gibco, #10500-064) and 2 mM L-Glutamine (Invitrogen Gibco, #25030-024); the C-433 cells were cultured in MCCoy's 5A culture medium (Invitrogen Gibco, #26600-023)/RPMI 1640 (Invitrogen Gibco, #31870-025) (50/50) containing 10% FCS and 2 mM L-glutamine; the MCF7 cells were cultured in EMEM culture medium (EMEM, Biowhittaker, Lonza, #BE12-662F) containing 10% FCS and 2 mM L-Glutamine.
(§4) Evaluation of the Cell Viability via Luminescence Measurement: Celltiter-Glo™ Test
(§5) On day 1, the cells were inoculated at 1000 (C-433), 2500 (MCF7) and 10000 (LNCaP and MIA PaCa-2) cells per well in black-bottomed 96-well microplates (NUNC fluoronunc, Fisherbioblock 2311K) in 135 μl of whole culture medium and incubated at 37° C., 5% CO2, for 3 to 6 hours. The cells were then incubated with increasing concentrations of molecules diluted in dimethyl sulfoxide (DMSO, Sigma D2650). The molecules were added in a volume of 15 μl of a 10-fold concentrated solution in a final volume of 150 μl, the final percentage of DMSO being 0.1%. The cells were incubated at 37° C., 5% CO2, for 96 hours. After 4 days of treatment with the molecules, the CellTiter-Glo™ was performed by following the manufacturer's instructions (Kit Celltiter-Glo Luminescent, PROMEGA #G7571). Briefly, the cell plates were equilibrated for about 30 minutes at RT and 100 μl per well of Celltiter-Glo reagent were added. The cells were incubated for 1 hour at RT for lysis of the cells and stabilization of the signal. The intracellular ATP was quantified by measuring the luminescence in rlu units (relative luminescence units), 96 hours after initiation of the treatment, using a luminescence counter (Wallac). The tests were performed in six replicates.
(§6) i) the mean±s.e.m. of each series of well replicates was calculated;
(§7) ii) the maximum response is given by positive control wells containing untreated cells; this control was performed in 12 replicates;
(§8) iii) the minimum response is given by cell-free and untreated negative control wells; this control was performed in 6 replicates;
(§9) iv) using these maximum (100%) and minimum (0%) response values, respectively, the data were normalized to give a percentage relative to the maximum response;
(§10) The IC50 values were calculated by […] with the XLfit software (IDBS, UK) using formula 205.

The subject of data set [2] is C-433 cells (human Ewing sarcoma cells). As to the kind of experiment: Proliferation of C-433 cells, intracellular ATP, CellTiter-Glo test. The following applies: Homo sapiens, 96 hours. Type of data set: cell-based.
Description: as §1, §2, §3, §4, §5, §6, §7, §8, §9, §10

The subject of data set [3] is LNCaP clone FGC cells (human prostate carcinoma cells). As to the kind of experiment: Proliferation of LNCaP cells, intracellular ATP, CellTiter-Glo test. Type of data set: cell-based. The following applies: Homo sapiens, LNCaP-Clone-FGC, 96 hours.
Description: as §1, §2, §3, §4, §5, §6, §7, §8, §9, §10

Regarding `O=C(Nc1ccc2[nH]ncc2c1)N[C@@H](c1cc(F)cc(Cl)c1)[C@@H]1CCCCN1` [Ex 3, 1-{(S)-(3-Chloro-5-fluorophenyl)[(2S)-piperid-2-yl]methyl}-3-(1H-indazol-5-yl)urea], the IC50 in data set [1] worked out at 1.1 µM; in data set [2], 0.63 µM; in data set [3], 0.28 µM.
Compound `O=C(Nc1ccc2[nH]ncc2c1)N[C@@H](c1ccc(Cl)c(Cl)c1)[C@@H]1CCCCN1` [Ex 4, 1-{(S)-(3,4-Dichlorophenyl)[(2S)-piperid-2-yl]methyl}-3-(1H-indazol-5-yl)urea] returned a melting point of 216 °C. Moreover, half-maximal inhibition in data set [1] (IC50) was put at 2.7 µM. The IC50 in data set [2] came to 0.68 µM. In data set [3], the IC50 stood at 1.2 µM.
`O=C(Nc1ccc2[nH]ncc2c1)NC(c1cc(F)cc(Cl)c1)C1CCCCN1` (stereo not drawn) [Ex 5, 1-[(3-Chloro-5-fluorophenyl)(piperid-2-yl)methyl]-3-(1H-indazol-5-yl)urea] registered a melting point of 185 °C. In data set [1], this compound registered an IC50 of 1.42 µM.
For the compound `Cc1n[nH]c2ccc(NC(=O)NC(c3ccccc3)C3CCCCN3C)cc12` [Ex 18, 3-Methyl-5-({[(1-methylpiperid-2-yl)(phenyl)methyl]carbamoyl}amino)-1H-indazole ((S,2S),(R,2R))], the IC50 in data set [1] was determined as 5.8 µM; in data set [3], 1.05 µM.
In turn, `CN1CCCCC1C(NC(=O)Nc1cc(F)c2[nH]ncc2c1)c1ccccc1` [Ex 21, 1-(7-Fluoro-1H-indazol-5-yl)-3-[(1-methylpiperid-2-yl)(phenyl)methyl]urea((S,2S),(R,2R))] returned an IC50 in data set [3] of 0.861 µM.
`CN1CCCCC1C(NC(=O)Nc1ccc2[nH]nc(C#Cc3cccnc3)c2c1)c1ccccc1` [Ex 25, 1-[(1-Methylpiperid-2-yl)(phenyl)methyl]-3-[3-(pyrid-3-ylethynyl)-1H-indazol-5-yl]urea((S,2S),(R,2R))]: the IC50 in data set [1] turned out to be 1.29 µM; in data set [2] it was 0.288 µM; in data set [3], 0.611 µM.
Regarding `S=C(Nc1ccc2[nH]ncc2c1)N[C@@H](c1ccc(Cl)c(Cl)c1)[C@@H]1CCCCN1` [Ex 31, 1-{(S)-(3,4-Dichlorophenyl)[(2S)-piperid-2-yl]methyl}-3-(1H-indazol-5-yl)thiourea], the IC50 is 4.45 µM in data set [1] and 2.94 µM in data set [3].
With `O=C(Nc1ccc2[nH]ncc2c1)O[C@@H](c1cc(F)cc(Cl)c1)[C@@H]1CCCCN1` [Ex 35, (S)-(3-Chloro-5-fluorophenyl)[(2S)-piperid-2-yl]methyl 1H-indazol-5-ylcarbamate], the IC50 in data set [1] worked out at 1.05 µM; in data set [3] it was 0.319 µM.
The compound `CN1CCCCC1C(OC(=O)Nc1ccc2[nH]ncc2c1)c1cc(F)cc(Cl)c1` (stereo not drawn) [Ex 36, (3-Chloro-5-fluorophenyl)(1-methylpiperid-2-yl)methyl 1H-indazol-5-ylcarbamate] displayed an IC50 in data set [3] of 2.23 µM.
Same read-out and setting: the same measure for `O=C(Nc1ccc2[nH]ncc2c1)O[C@H](c1ccc(Cl)c(Cl)c1)[C@H]1CCCCN1` [Ex 37, (R)-(3,4-Dichlorophenyl)[(2R)-piperid-2-yl]methyl 1H-indazol-5-ylcarbamate]: 2.37 µM.
`O=C(Nc1ccc2[nH]ncc2c1)O[C@@H](c1ccc(Cl)c(Cl)c1)[C@@H]1CCCCN1` [Ex 38b, (S)-(3,4-Dichlorophenyl)[(2S)-piperid-2-yl]methyl 1H-indazol-5-ylcarbamate]: the IC50 amounted to 2.4 µM in data set [1], 1.79 µM in data set [2] and 1.71 µM in data set [3].
For `O=C(Nc1ccc2[nH]ncc2c1)O[C@@H](c1cccc(Br)c1)[C@@H]1CCCCN1` [Ex 46] the same measures were 1.3 µM, 0.5 µM and 0.6 µM.
